pIC50, pKi: −log10 of the molar value. Values joined by “and” are separate entries in the source; they are usually repeats but may differ in a detail not shown here. Identical values can stand only once. Non-standard residues stand in square brackets, D forms with d.
Experiments:
[1] = molecular target: T1, thrombin (Homo sapiens, UniProt P00734); experiment: Antithrombin activity in vitro, Ki (Table III); type: biochemical; settings: first test where two are given; means for 3-5 observations
Experimental: The reactions were initiated by addition of the substrate dissolved in 0.1 M Tris-HCl buffer, pH 7.8 to a preincubated solution of enzyme (0.4 or 0.04 nM) and variable concentrations of inhibitor dissolved in the same buffer. Initial velocities were recorded and Ki values were determined graphically by weighted linear regression of Dixon plots in the case of competitive inhibition, or by the method of Baici (Baici, 1981) for hyperbolic inhibition. Fluorogenic assays were conducted using the same conditions and instrument as above operating in the fluorescence mode in the Ratio (λex=383 nm, λem=455 nm). Fluorescence intensities were calibrated with 7-amino-4-methyl coumarin solution of known concentration. The specificity of the synthetic peptides of the present invention for human α-thrombin may also be determined by comparing their relative inhibitory activities towards both human α-thrombin and bovine α-thrombin and trypsin by comparing Ki values obtained in the amidolytic assay of thrombin activity.

[2] = molecular target: T1, thrombin; experiment: Thrombin time in buffer containing fibrinogen (dTT); type: biochemical; settings: read-out: IC50 dTT (concentration required to double thrombin time)
Text: *Concentration of compound required to double thrombin time in buffer

[3] = test system: human plasma clotting; experiment: Human plasma clotting time; type: biochemical; settings: read-out: IC50 plasma clotting time (concentration required to inhibit human plasma clotting time by 50%)
Experimental: Thus, for the determination of prothrombin time, 50 μl of reconstituted citrated normal human plasma (Sigma, St-Louis, Mo.) is mixed with 50 μl of thromboplastin solution at 37° C. in a 400 μl cuvette. […] The clotting time is recorded following recalcification with 100 μl of 25 mM CaCl2. The clotting time in the absence of inhibitor was between 19-22 sec.
The same procedure is adopted for the determination of activated partial thromboplastin time except that reconstituted plasma is activated for 3 minutes with cephalin (Sigma, St-Louis, Mo.).
**Concentration of compound required to inhibit human plasma clotting tim

[4] = test system: platelets; experiment: Thrombin-induced platelet aggregation; type: cell-based
Experimental: The inhibitory activity of some of the peptides of the present invention toward thrombin is reflected by their ability to inhibit thrombin-mediatedplatelet aggregation as shown in FIG. 2. Platelet rich plasma containing variable concentrations of P79 is treated with thrombin. Platelet aggregation, reflected by increased light transmittance is measured on a Bio Data PAP-4 aggregometer.

[5] = test system: carotid artery thrombosis; experiment: Ferric chloride injury-induced thrombosis model in carotid artery; settings: rat carotid artery, FeCl3 injury; control patency time 19 ± 1 min
Experimental: Species: Rat, male, Sprague-Dawley.
Animals were laid on a heating pad which was maintained at 37° C. The carotid artery was approached through a midline cervical incision. Carefully blunt dissection was used to expose and isolate the vessel from the carotid sheath. […] The vessel temperature was monitored for 60 minutes after application of FeCl3. […] The site of the experiment was covered with aluminum foil in order to protect the FeCl3 from degradation by light.
All the samples were kept on ice and centrifuged as soon as possible at 2000 Rpm for 10 min., 4° C. The plasma was analyzed in duplicate for activated partial thromboplastin time on a haemostasis analyzer (STAGO ST4™).
From a group of four animals, two arteries were stored at -80° C. for further analysis. The others were observed under a light microscope at 40× (Leica™) for quantification of the occlusion (complete, partial, no occlusion).
In some studies, the animal was receiving the compound by i.v. infusion instead of a bolus. In this case, the jugulars and femoral veins were cannulated with Sylastic tubing (I.D. 0.025IN). This left jugular was used for blood sampling and the right one for the infusion line. The compound was infused 30 minutes before injury and then for an other 30 minutes post-injury. Blood samples were taken at time 0, 30 and 60 minutes for APTT test and thrombin test (1 ml of blood/90 ul of citrated buffer).

[6] = test system: venous thrombosis in vena cava; experiment: Venous thrombosis model (balloon catheter induced-injury and stasis in vena cava); type: in vivo, rat; settings: rats, i.v. bolus
Experimental: Rats ranging in weight from 350 g-450 g were anaesthetized with urethane [50%] at 1500 mg/kg IP. The abdomen and neck were shaved and prepared for surgery.
An incision was made from the base of the sternum to approximately 10-20 mm up from the penile sheath. Another incision was made across the end of the incision (90 degree) to create a flap to be hemostat open. […] Two sutures were loosely looped around the vein(1) and the vein and artery(2), just posterior to the renal veins and arteries. All other branches coming off dorsally from the vena cava were ligated as well as any other veins which may branch of this vein (approximately 4-6 depending on rat). Two more sutures were looped around the vein(1) and artery and vein(2) at the bifurcation of the femoral vein and artery. The right jugular vein was isolated, for later injection of compound.
An incision in the upper interior leg was made and the femoral vein and artery were exposed. The femoral vein was isolated and two sutures were looped around it. One suture was ligated distally, and the other one was pulled tight (proximal) to stop blood flow through the vessel. A very small incision was made into the vein and a 2F fogarty catheter was inserted. The catheter was fed up the femoral vein to the upper sutures (near the renal veins). At this point, inject the compound via the isolated right jugular vein and wait 1 minute. At 1 minute inflate the fogarty catheter with enough saline to distend the vena cava, but still allowing the catheter to be pulled back down to the point of femoral bifurcation without bursting the vessel. This procedure was repeated 3 times. After the third passage, the catheter was removed and as quickly as possible, the femoral incision was ligated with the proximal suture and the suture which was looped around only the vena cava was ligated to stop return flow and allow thrombus growth and the timer was set for 30 minutes.
At this point, the intestines may be placed back in the body cavity, and moistened with saline if any drying has occurred, and skin kept closed with hemostat. […]

[7] = test system: activated partial thromboplastin time; experiment: Increase in APTT, bolus plus infusion model; type: in vivo, rat; set-up: Infusion Dose needed to cause 2-4 fold increase in APTT: unit not given here; settings: intravenous bolus followed by infusion
[8] = test system: platelet deposition on arterial media; experiment: Pig angioplasty model, ex vivo platelet deposition on arterial media; type: in vivo
Experimental: The study investigates the dose range required to inhibit platelet deposition on arterial media and aggregation ex vivo in the pig using a bolus and infusion regimen of the compounds of the invention. The study was carried out according to Lam, J. Y. T. et al., Circulation 84:2, August 1991, 814-820. A brief outline of the protocol follows.
Normal 3-4 month old pigs were used. In all pigs, autologous platelets were labeled with 300-400 μCi ^111 In-tropolone 18-24 hours before angioplasty. The pigs were sedated with 300 mg i.m. ketamine. After inhalation of the ether, the pigs were intubated, mechanically ventilated with room air by a respirator and maintained anesthetized with 0.5% halothane. Immediately after catheter insertion, a single bolus of heparin was administered to animals receiving platelet-inhibitor therapy and their matching controls corresponding to a dose less than 3.1 units/kg/min. Heparin was not administered to animals receiving hirudin or their matching controls.
An 8F balloon dilation catheter was advanced under fluoroscopic control through a right femoral cut down into the left and right common carotid arterial segment between the fifth and fourth vertebrae. Five inflations were performed, 30 seconds each at 6 atm with 60 seconds between inflations. The angiographic lumen diameter before dilation ranged from 5 to 6 mm during dilation, the diameter of the inflated balloon within the artery was not more than 10% greater than the original arterial lumen. […]
The platelet deposition on each dilated artery was calculated from the platelet counts and ^111 In activity on the arterial wall and in the blood obtained. The percentage of radioactivity bound to platelets was determined and the number of platelets per counts per minute was calculated from known blood platelet counts. The number of platelets deposited on the arterial segments per square centimeter was calculated by dividing the arterial segment counts per minute by both the number of platelets per counts per minute and the arterial surface area.

Substance	pKi [1]	pIC50 [2]	pIC50 [3]	pIC50 [4]	Dose to double patency time [5]	Minimum Bolus dose needed to achieve patency [6]	Bolus Dose needed to cause 2-4 fold increase in APTT [7]	Infusion Dose needed to cause 2-4 fold increase in APTT [7]	Decrease of platelet deposition on arterial media relative to baseline control, mean ([8]; four animals)	Platelet deposition after drug infusion, X±SEM ([8]; i.v. bolus 0.2 mg/kg then infusion 0.2 mg/kg/hr, four animals, paired T P=0.0001)	Platelet deposition after drug infusion, single animals ([8]; i.v. bolus 0.2 mg/kg then infusion 0.2 mg/kg/hr, mean of three determinations per animal, animals 1-4, listed as BCH-1710)
(D-Phe)-Pro-Arg-(CH2)4 (CO)--[NH(CH2)4 (CO)]2 -DF-(4-thiahomoGlu)-PIPL-TFA salt [BCH-2758]	9.02	8.31	7.52	8.00	4 mg/kg	–	–	–	–	–	–
Ac(D-Phe)-Pro-Arg-(CH2)4 (CO)--[NH--CH2 --CH=CH--CH2 --(CO)]2 -DFEPIPL-OH (Ac-[dF]PR[(CH2)4CO][NHCH2CH:CHCH2CO][NHCH2CH:CHCH2CO]DFEPIPL-OH; numbers in words are those of the source; also: Arg carbonyl bonded to (CH2)4 (non-amide backbone link)) [P184]	8.82	7.98	7.28	8.22	1 to 2 mg/kg	0.5 to 2 mg/kg	1 mg/kg	125	61.2%	39.8±12.7 % of control	31.9 % of control and 23.7 % of control and 3.7 % of control and 84.3 % of control

Source: patent US6060451A, “Thrombin inhibitors based on the amino acid sequence of hirudin” (The National Research Council of Canada, priority 1995, dated 2000)
